Target: TNFα (Homo sapiens, UniProt P01375)
Test: HEK-Blue hTNFα reporter assay
Type: cell-based
Parameters: purchased R&D biosystem (R&D Systems) 210-TA-020/CF
Conditions: HEK-Blue hTNFα reporter cells, SEAP readout; read-out: IC50 Range
Description: Stimulation of HEK293 cells by TNFα leads to activation of the NF-κB pathway. The potency of compounds was examined in HEK-Blue™ hTNFα reporter cells (Invivogen, Cat #hkb-tnfdmyd). HEK-Blue™ TNFα cells were generated by stable transfection of HEK293 cell line with a SEAP reporter gene under the control of the […] minimal promoter fused to NF-κB binding sites. Stimulation of HEK-Blue™ TNFα cells with TNFα triggers the activation of the NF-κB-inducible promoter and the production of SEAP. Levels of SEAP in the supernatant can be easily determined using QUANTI-Blue™ Solution (Invivogen, cat #rep-qbs) by reading the OD at 620-655 nm.
HEK-Blue™ TNFα cells were cultured in DMEM supplemented with 10% FBS, 100p/mL penicillin, 100 μg/mL streptomycin, 100 μg/mL normocin, 1 μg/mL puromycin, and 100 μg/mL zeocin. The culture was maintained in culture incubator with 5% CO2 at 37° C. When used for assay, the cells were gently rinsed twice with pre-warmed phosphate buffered saline (PBS) and detached in presence of PBS by tapping the flask or by using a cell scraper. The cells were spun to remove PBS and resuspended in fresh, pre-warmed test medium (DMEM supplemented with 10% FBS, 100p/mL penicillin, and 100 μg/mL streptomycin). A serial dilution of work solution of tested compound was made in DMSO with 1000× of final concentration, and 40 nL of compound DMSO solution was transferred into 384-well plates (Corning 3764) by Echo, and incubated with 10 μL of recombinant hTNFα (R&D biosystem, Cat #210-TA-020/CF) for 1 h at 37° C. The compound/hTNFα mixture well received 30 μL HEK-Blue™ TNFα cell suspension at 10000 cells/well, and then incubated at 37° C. with 5% CO2 for 24 h. The final concentration of hTNFα is […]. After incubation, 5 μL of induced cell supernatant was transferred to a new 384-well plate well (Coring 3764) to mix with 45 μL of QUANTI-Blue Solution. After 1 h incubation at 37° C., the plate was read using a spectrophotometer at 620 nm.
The percentage of inhibition was calculated by the following formula: % inhibition=(positive control−Sample)/(positive control−negative control)*100 • Positive control: OD620 reading of cells with hTNFα stimulation. • Negative control: OD620 reading of cells without hTNFα stimulation. • Sample: OD620 reading of cells with compound at specific concentration and hTNFα stimulation
The % inhibition was plotted against compound concentration in logarithmic scale and the IC50 was rendered using 4-parameter nonlinear regression (GraphPad Prism).

TNFα, sequence (P01375 77-233 limits assumed): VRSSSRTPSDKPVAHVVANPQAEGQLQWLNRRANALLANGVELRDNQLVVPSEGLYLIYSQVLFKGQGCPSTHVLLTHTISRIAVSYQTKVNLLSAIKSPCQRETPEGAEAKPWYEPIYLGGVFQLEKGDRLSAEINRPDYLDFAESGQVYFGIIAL

`CN1C(=O)c2cccc(OC(F)F)c2[C@H]2C[C@@H]1c1nn3cnc(-c4cnc([C@]5(N)C[C@@](C)(C#N)C5)c(F)c4)cc3c12` [Example 59] and `[2H]C([2H])([2H])N1C(=O)c2cccc(OC(F)F)c2[C@H]2C[C@@H]1c1nn3cnc(-c4cnc([C@]5(N)C[C@@](C)(C#N)C5)nc4)cc3c12` [Example 61] cannot be ordered by IC50: under 25 nM for the first, under 25 nM for the second.

`C[C@]1(C#N)C[C@](N)(c2ncc(-c3ccn4nc5c(c4n3)[C@@H]3C[C@H]5NC(=O)c4cccc(OC(F)F)c43)cn2)C1` [Example 60] and `CN1C(=O)c2cccc(OC(F)F)c2[C@H]2C[C@@H]1c1nn3ccc(-c4cnc(C5(N)CC(F)(F)C5)nc4)cc3c12` [Example 99] cannot be ordered by IC50: under 25 nM for the first, under 25 nM for the second.

`CN1C(=O)c2cccc(OC(F)F)c2[C@H]2C[C@@H]1c1nn3ccc(-c4cnc([C@]5(O)CCOC5)nc4)cc3c12` [Example 63] and `CN1C(=O)c2cccc(OC(F)F)c2[C@H]2C[C@@H]1c1nn3ccc(-c4cnc([C@@]5(O)CCOC5)nc4)cc3c12` [Example 64] cannot be ordered by IC50: under 25 nM for the first, under 25 nM for the second.

`CN1C(=O)c2cccc(OC(F)F)c2[C@H]2C[C@@H]1c1nn3ccc(-c4cnc(C5(O)CCOCC5)nc4)cc3c12` [Example 65] and `CN1C(=O)c2cccc(OC(F)F)c2[C@H]2C[C@@H]1c1nn3ccc(-c4cnc(C5(O)CCC5)nc4)cc3c12` [Example 71] cannot be ordered by IC50: under 25 nM for the first, under 25 nM for the second.

`CN1C(=O)c2cccc(OC(F)F)c2[C@H]2C[C@@H]1c1nn3ccc(-c4cnc(C5(O)CC(F)(F)C5)nc4)cc3c12` [Example 66] and `CN1C(=O)c2cccc(OC(F)F)c2[C@H]2C[C@@H]1c1nn3ccc(-c4cnc([C@]5(O)C[C@](O)(C(F)F)C5)nc4)cc3c12` [Example 91] cannot be ordered by IC50: under 25 nM for the first, under 25 nM for the second.

`CN1C(=O)c2cccc(OC(F)F)c2[C@H]2C[C@@H]1c1nn3ccc(-c4cnc(OCP(C)(C)=O)nc4)cc3c12` [Example 67] and `CN1C(=O)c2cccc(OC(F)F)c2[C@H]2C[C@@H]1c1nn3ccc(-c4ccnc(OCP(C)(C)=O)c4)cc3c12` [Example 70] cannot be ordered by IC50: under 25 nM for the first, under 25 nM for the second.

First: CN1C(=O)c2cccc(OC(F)F)c2[C@H]2C[C@@H]1c1nn3ccc(-c4ccc(S(=N)(=O)C5CC5)nc4)cc3c12 (stereo partly shown) [Example 68]
Second: CN1C(=O)c2cccc(OC(F)F)c2[C@H]2C[C@@H]1c1nn3ccc(-c4cnc(S(=N)(=O)C5CC5)nc4)cc3c12 (stereo partly shown) [Example 92]
The IC50 of the first is lower: under 25 nM for the first, 25 to 100 nM for the second. The first is the more potent here.

`CN1C(=O)c2cccc(OC(F)F)c2[C@H]2C[C@@H]1c1nn3ccc(-c4cnc(C5(O)CCC(F)(F)CC5)nc4)cc3c12` [Example 72] and `CN1C(=O)c2cccc(OC(F)F)c2[C@H]2C[C@@H]1c1nn3ccc(-c4cnc(C5(O)COC5)nc4)cc3c12` [Example 77] cannot be ordered by IC50: under 25 nM for the first, under 25 nM for the second.

`CN1C(=O)c2cccc(OC(F)F)c2[C@H]2C[C@@H]1c1nn3ccc(-c4cnc([C@@](C)(O)C(F)F)nc4)cc3c12` [Example 73] and `CN1C(=O)c2cccc(OC(F)F)c2[C@H]2C[C@@H]1c1nn3ccc(-c4cnc([C@](C)(O)C(F)F)nc4)cc3c12` [Example 74] cannot be ordered by IC50: under 25 nM for the first, under 25 nM for the second.

`CN1C(=O)c2cccc(OC(F)F)c2[C@H]2C[C@@H]1c1nn3ccc(-c4cnc([C@](C)(O)CC#N)nc4)cc3c12` [Example 75] and `CN1C(=O)c2cccc(OC(F)F)c2[C@H]2C[C@@H]1c1nn3ccc(-c4cnc([C@@](C)(O)CC#N)nc4)cc3c12` [Example 76] cannot be ordered by IC50: under 25 nM for the first, under 25 nM for the second.

`CN1C(=O)c2cccc(OC(F)F)c2[C@H]2C[C@@H]1c1nn3ccc(-c4cnc([C@](O)(CC#N)C(F)F)nc4)cc3c12` [Example 78] and `CN1C(=O)c2cccc(OC(F)F)c2[C@H]2C[C@@H]1c1nn3ccc(-c4cnc([C@@](O)(CC#N)C(F)F)nc4)cc3c12` [Example 79] cannot be ordered by IC50: under 25 nM for the first, under 25 nM for the second.

`CN1C(=O)c2cccc(OC(F)F)c2[C@H]2C[C@@H]1c1nn3ccc(-c4cnc([C@@](C)(O)C5CC5)nc4)cc3c12` [Example 80] and `CN1C(=O)c2cccc(OC(F)F)c2[C@H]2C[C@@H]1c1nn3ccc(-c4cnc([C@](C)(O)C5CC5)nc4)cc3c12` [Example 81] cannot be ordered by IC50: under 25 nM for the first, under 25 nM for the second.

`CN1C(=O)c2cccc(OC(F)F)c2[C@H]2C[C@@H]1c1nn3ccc(-c4cnc([C@]5(O)C[C@@H](O)C5)nc4)cc3c12` [Example 82] and `CN1C(=O)c2cccc(OC(F)F)c2[C@H]2C[C@@H]1c1nn3ccc(-c4cnc([C@]5(O)CC[C@@H](O)C5)nc4)cc3c12` [Example 101] cannot be ordered by IC50: under 25 nM for the first, under 25 nM for the second.

`CN1C(=O)c2cccc(OC(F)F)c2[C@H]2C[C@@H]1c1nn3ccc(-c4cnc([C@](C)(O)CO)nc4)cc3c12` [Example 83] and `CN1C(=O)c2cccc(OC(F)F)c2[C@H]2C[C@@H]1c1nn3ccc(-c4cnc([C@@](C)(O)CO)nc4)cc3c12` [Example 84] cannot be ordered by IC50: under 25 nM for the first, under 25 nM for the second.

`CN1C(=O)c2cccc(OC(F)F)c2[C@H]2C[C@@H]1c1nn3ccc(-c4cnc([C@@](C)(O)C5COC5)nc4)cc3c12` [Example 85] and `CN1C(=O)c2cccc(OC(F)F)c2[C@H]2C[C@@H]1c1nn3ccc(-c4cnc([C@](C)(O)C5COC5)nc4)cc3c12` [Example 86] cannot be ordered by IC50: under 25 nM for the first, under 25 nM for the second.

`CN1C(=O)c2cccc(OC(F)F)c2[C@H]2C[C@@H]1c1nn3ccc(-c4cnc(P(C)(C)=O)cn4)cc3c12` [Example 87] and `CN1C(=O)c2cccc(OC(F)F)c2[C@H]2C[C@@H]1c1nn3ccc(-c4ccc(P(C)(C)=O)nn4)cc3c12` [Example 100] cannot be ordered by IC50: under 25 nM for the first, under 25 nM for the second.

`CN1C(=O)c2cccc(OC(F)F)c2[C@H]2C[C@@H]1c1nn3ccc(-c4cnc([C@]5(N)C[C@@](C)(C(=O)O)C5)nc4)cc3c12` [Example 88] and `CN1C(=O)c2cccc(OC(F)F)c2[C@H]2C[C@@H]1c1nn3ccc(-c4cnc([C@@]5(O)CC[C@H](O)C5)nc4)cc3c12` [Example 102] cannot be ordered by IC50: under 25 nM for the first, under 25 nM for the second.

`[2H]C([2H])([2H])N1C(=O)c2cccc(OC(F)F)c2[C@H]2C[C@@H]1c1nn3ccc(-c4cnc([C@@](C)(O)CC#N)nc4)cc3c12` [Example 89] and `[2H]C([2H])([2H])N1C(=O)c2cccc(OC(F)F)c2[C@H]2C[C@@H]1c1nn3ccc(-c4cnc([C@](C)(O)CC#N)nc4)cc3c12` [Example 90] cannot be ordered by IC50: under 25 nM for the first, under 25 nM for the second.

`C[C@H](O)c1ncc(-c2ccn3nc4c(c3c2)[C@@H]2C[C@H]4N(C)C(=O)c3cccc(OC(F)F)c32)cn1` [Example 93] and `C[C@@H](O)c1ncc(-c2ccn3nc4c(c3c2)[C@@H]2C[C@H]4N(C)C(=O)c3cccc(OC(F)F)c32)cn1` [Example 94] cannot be ordered by IC50: under 25 nM for the first, under 25 nM for the second.

`CN1C(=O)c2cccc(OC(F)F)c2[C@H]2C[C@@H]1c1nn3ccc(-c4cnc(C(O)(CF)CF)nc4)cc3c12` [Example 95] and `CN1C(=O)c2cccc(OC(F)F)c2[C@H]2C[C@@H]1c1nn3ccc(-c4cnc([C@H](O)C(F)F)nc4)cc3c12` [Example 105] cannot be ordered by IC50: under 25 nM for the first, under 25 nM for the second.

`[2H]C([2H])([2H])N1C(=O)c2cccc(OC(F)F)c2[C@H]2C[C@@H]1c1nn3ccc(-c4cnc([C@](O)(CC#N)C(F)F)nc4)cc3c12` [Example 96] and `[2H]C([2H])([2H])N1C(=O)c2cccc(OC(F)F)c2[C@H]2C[C@@H]1c1nn3ccc(-c4cnc([C@@](O)(CC#N)C(F)F)nc4)cc3c12` [Example 97] cannot be ordered by IC50: under 25 nM for the first, under 25 nM for the second.

`CN1C(=O)c2cccc(OC(F)F)c2[C@H]2C[C@@H]1c1nn3cc(F)c(-c4cnc(C5(O)COC5)nc4)cc3c12` [Example 98] and `CN1C(=O)c2cccc(OC(F)F)c2[C@H]2C[C@@H]1c1nn3ccc(-c4cnc([C@@H](O)C(F)F)nc4)cc3c12` [Example 106] cannot be ordered by IC50: under 25 nM for the first, under 25 nM for the second.

`CN1C(=O)c2cccc(OC(F)F)c2[C@H]2C[C@@H]1c1nn3ccc(-c4cnc([C@H](N)C5CC5)nc4)cc3c12` [Example 103] and `CN1C(=O)c2cccc(OC(F)F)c2[C@H]2C[C@@H]1c1nn3ccc(-c4cnc([C@@H](N)C5CC5)nc4)cc3c12` [Example 104] cannot be ordered by IC50: under 25 nM for the first, under 25 nM for the second.

`CN1C(=O)c2cccc(OC(F)F)c2[C@H]2C[C@@H]1c1nn3ccc(-c4ncc([C@@H](O)C5COC5)cn4)cc3c12` [Example 107] and `CN1C(=O)c2cccc(OC(F)F)c2[C@H]2C[C@@H]1c1nn3ccc(-c4ncc([C@H](O)C5COC5)cn4)cc3c12` [Example 108] cannot be ordered by IC50: under 25 nM for the first, under 25 nM for the second.

Same assay, conditions: HEK-Blue hTNFα reporter cells; read-out: TNFα reporter, Emax

First: CN1C(=O)c2cccc(OC(F)F)c2[C@H]2C[C@@H]1c1nn3cnc(-c4cnc([C@]5(N)C[C@@](C)(C#N)C5)c(F)c4)cc3c12 [Example 59]
Second: CN1C(=O)c2cccc(OC(F)F)c2[C@H]2C[C@@H]1c1nn3ccc(-c4cnc(C5(O)CCOCC5)nc4)cc3c12 [Example 65]
The Emax of the first is higher: 98% for the first, 90% for the second.

Same assay, conditions: HEK-Blue hTNFα reporter cells; read-out: TNFα reporter, IC50

`CN1C(=O)c2cccc(OC(F)F)c2[C@H]2C[C@@H]1c1nn3cnc(-c4cnc([C@]5(N)C[C@@](C)(C#N)C5)c(F)c4)cc3c12` [Example 59] and `CN1C(=O)c2cccc(OC(F)F)c2[C@H]2C[C@@H]1c1nn3ccc(-c4cnc(C5(O)CCOCC5)nc4)cc3c12` [Example 65] are within 1.5-fold of each other in IC50: 4.1 nM for the first, 3.1 nM for the second.

— patent US12410179B2, “Modulators of TNF alpha activity and uses thereof” (RayThera, Inc., priority 2023, dated 2025)
